The source of these data is BindingDB's records for patent US20240132491 (Medshine Discovery, 2024).

The target in this assay is Programmed cell death 1 ligand/protein 1 (Homo sapiens, UniProt Q9NZQ7). Nature of the assay: PD-L1 Binding Assay. Here is the method:
Experimental Materials:PD1:PD-L1 TR-FRET assay kit, purchased from BPS Biosciences. Nivo multimode microplate reader (PerkinElmer)Experimental Method:PD1-Eu, dye-labeled acceptor, PD-L1-biotin, and compound to be tested were all diluted using the buffer in the kit.The compound to be tested was diluted 5-fold to the 8th concentration, i.e., from 4 μM to 0.05 nM, and the DMSO concentration was 4%. The experiment was set up in duplicate wells. 5 μL of each concentration gradient of the compound to be tested was added to a microtiter plate, wherein 5 μL of a buffer containing 4% DMSO and 5 μL of PD-L1-biotin (60 nM) was added to the Max signal well, and only 5 μL of buffer was added to the Min signal well. The plate was incubated at 25° C. for 20 minutes. After the incubation, 5 μL of diluted PD1-Eu (10 nM) and 5 μL of diluted dye-labeled acceptor were added to each well. The system was reacted at 25° C. for 90 minutes. After the reaction, the multimode microplate reader was used to read the time-resolved fluorescence analysis signal.

Molecules are shown by their SMILES.

Chain of Programmed cell death 1 ligand/protein 1 (Q9NZQ7 whole entry): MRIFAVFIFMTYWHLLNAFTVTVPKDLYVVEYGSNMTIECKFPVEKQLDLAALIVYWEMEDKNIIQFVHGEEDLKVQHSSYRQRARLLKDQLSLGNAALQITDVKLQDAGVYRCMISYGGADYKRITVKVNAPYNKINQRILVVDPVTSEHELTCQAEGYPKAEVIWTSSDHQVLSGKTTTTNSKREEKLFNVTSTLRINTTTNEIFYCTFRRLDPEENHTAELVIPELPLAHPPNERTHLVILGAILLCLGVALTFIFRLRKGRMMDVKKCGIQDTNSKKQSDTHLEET
Chain of Programmed cell death 1 ligand/protein 1 (Q15116 whole entry, further chain): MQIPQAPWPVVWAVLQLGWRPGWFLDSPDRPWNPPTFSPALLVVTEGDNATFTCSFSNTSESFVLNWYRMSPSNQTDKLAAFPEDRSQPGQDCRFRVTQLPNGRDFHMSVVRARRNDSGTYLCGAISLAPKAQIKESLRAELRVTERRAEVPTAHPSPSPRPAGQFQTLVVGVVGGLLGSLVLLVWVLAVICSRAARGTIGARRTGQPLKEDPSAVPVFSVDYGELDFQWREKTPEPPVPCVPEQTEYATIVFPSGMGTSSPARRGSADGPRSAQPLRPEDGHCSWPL

Molecule `COc1nc(-c2cccc(-c3cccc4c3CCN4c3nccc4cc(CN5CC[C@@H](O)C5)cnc34)c2Cl)ccc1CNC[C@@H]1CCC(=O)N1` [US20240132491, Example 1] displayed an IC50 of 1.95 nM.

As usually defined, the IC50 is the concentration that inhibits the measured activity by half. Lower therefore signals greater potency.
